Source: paper PMC7038073, “Substituted Piperazines as Novel Potential Radioprotective Agents” (Molecules, 2020)
Entries after “also recorded” stand apart in the source; their conditions may differ. Counter-ions that a name gives are not always drawn.

Key:
[1] = WST-1 cytotoxicity test, HT-29; type: cell-based; details: human, HT-29 cells, 48 h, WST-1, mean ± SD of three experiments, read-out: relative viability (%) compared to untreated control; for viability at 48 h, 10 µM: HT-29, 10 µM; for viability at 48 h, 100 µM: HT-29, 100 µM
Description: (§1) In this study, the cytotoxic effects of nine new compounds (2, 3, 4, 5, 6, 7, 8, 9, 10) were tested on 10 human cell lines (nine cancer and one non-cancer cell line). The cell lines were treated with each compound at concentrations of 10 µM and 100 µM for 48 h. The proliferation capacity of the treated cells was determined by WST-1 test and compared against the proliferation rate of the untreated control cells (100%).
(§2) The cell lines Jurkat, MOLT-4, A2780, A549, HT-29, PANC-1, HeLa, MCF-7, SAOS-2, and MRC-5 (all purchased from Sigma Aldrich, Czech Republic) were included in this study. All cell lines were maintained according to the provider’s guidelines, and plated and treated in 96-well plates (500 to 30 × 10^3 cells per well). The tested compounds 2, 3, 4, 5, 6, 7, 8, 9, and 10 were dissolved in 0.1% DMSO and kept in 10 mM stock solutions. Before use, the stock solution was diluted in culture media at ratios of 1:100 and 1:1000. The studied cell lines were treated with the compounds 2, 3, 4, 5, 6, 7, 8, 9, and 10 at concentrations of 10 and 100 µM for 48 h. Control cells were tested in culture media with and without DMSO (0.1%). The cells were also treated with 1 µM doxorubicin as a cytotoxicity control.
(§3) The WST-1 (2-(4-iodophenyl)-3-(4-nitrophenyl)-5-(2,4-disulfophenyl)-2H-tetrazolium, monosodium salt) test (Roche, Mannheim, Germany) was used according to the manufacturer’s protocol to determine cell viability in all 10 cell lines 48 h after treatment with the tested compounds. The cells were analyzed in a Tecan Infinite M200 spectrometer (Tecan Group, Männedorf, Switzerland) at 440 nm.

MOLT-4 cells = assay: Radioprotection in vitro, Annexin V/PI flow cytometry after irradiation; type: cell-based, human; details: 60-min pre-treatment, 1 Gy; for viability at 100 µM: Homo sapiens, MOLT-4, light or radiation study, 24 h following irradiation, irradiated untreated 40%, non-irradiated control 92%, read-out: percentage of viable MOLT-4 cells (Annexin V and PI negative) after irradiation; for radioprotective effect in vitro (in words): 100 μM, MOLT-4
Description: Phosphatidylserine, a major component of the inner leaflet of the cytoplasmic membrane bilayers, is frequently used as an indicator of cell death. The externalization of this phospholipid can be detected through Annexin V, which binds to phosphatidylserine in the presence of calcium. Cell viability was quantified by Annexin V-Alexa Fluor® 488/propidium iodide (PI) staining and flow cytometry analysis to determine whether the tested compounds could prevent radiation-induced cell death in MOLT-4 cells. The percentage of viable cells was 92% for non-irradiated control (0.1% DMSO vehicle) and 40% for untreated irradiated cells (1 Gy) (Figure 2A).
Fresh 50 mM stock solutions of the compounds were prepared in DMSO (Sigma-Aldrich, St. Louis, MO, USA) before use in the study. For the radioprotection experiments, MOLT-4 cells were treated with 100 μM solutions of the novel compounds and irradiated after 60 min with a ^60Co γ-ray source (Chisotron Chirana, Prague, Czech Republic). The non-irradiated and irradiated control cells were treated with DMSO vehicle only (0.1%) and handled in parallel with the experimental cells. Non-irradiated control cells were handled in the same manner. Cell viability was determined by flow cytometry using an Alexa Fluor® 488 Annexin V/Dead Cell Apoptosis kit (Life Technologies, Grand Island, NY, USA) according to the manufacturer’s instructions. The Alexa Fluor® 488 Annexin V/Dead Cell Apoptosis kit employs the property of Alexa Fluor® 488 conjugated to Annexin V to bind to phosphatidylserine in the presence of Ca^2+, and the property of propidium iodide (PI) to enter cells with damaged cell membranes and bind to DNA. Measurement was performed using a CyAn (Beckman Coulter, Miami, FL, USA) flow cytometer. Listmode data was analyzed with the Kaluza Analysis v1.3 software (Beckman Coulter, Miami, FL, USA).

[2] = WST-1 cytotoxicity test, PANC-1; type: cell-based; details: human, PANC-1 cells, 48 h, WST-1, mean ± SD of three experiments, read-out: relative viability (%) compared to untreated control; for viability at 48 h, 10 µM: PANC-1, 10 µM; for viability at 48 h, 100 µM: PANC-1, 100 µM
Description: as §1, §2, §3

[3] = WST-1 cytotoxicity test, Jurkat; type: cell-based; details: human, Jurkat cells, 48 h, WST-1, mean ± SD of three experiments, read-out: relative viability (%) compared to untreated control
Description: as §1, §2, §3

[4] = WST-1 cytotoxicity test, MRC-5; type: cell-based; details: human, MRC-5 cells, 48 h, WST-1, mean ± SD of three experiments, read-out: relative viability (%) compared to untreated control; for viability at 48 h, 10 µM: MRC-5, 10 µM; for viability at 48 h, 100 µM: MRC-5, 100 µM
Description: as §1, §2, §3

BALB/c mice = assay: Survival of whole-body irradiated mice; type: in vivo; details: female BALB/c mice; for day post-irradiation of onset of lethal effect / decline in survival: i.p. at 50% of MTD 5 min before 7.15 Gy, non-treated control 10 days; for survival at day 30 post-irradiation: n = 10, i.p. at 50% of MTD 5 min before 7.15 Gy, control 40%
Description: To estimate the radioprotective effect on whole-body irradiated mice, compounds 4 (50 mg/kg), 5 (100 mg/kg), 6 (50 mg/kg), 7 (100 mg/kg), 8 (1000 mg/kg), and 10 (325 mg/kg) were injected (intraperitoneally, i.p.) 5 min before receiving 7.15 Gy of gamma radiation. These compounds were selected based on the cytotoxicity screening in vitro, and applied at a dose corresponding to 50% of the MTD in vivo. […] The follow-up period was 30 days.
Adult female BALB/c mice (21 ± 0.8 g) were used for all experiments (Velaz a.s., Prague, Czech Rep.). All the performed methods were in accordance with NIRS Guidelines for the Care and Use of Laboratory Animals and approved by the Committee for animal rights of the Ministry of Defence of the Czech Republic no. ČJ MO 255172/2019-684800. The mice, arranged in groups of 10 animals each, received a dose of 7.15 Gy from a ^60Co gamma source (Chisotron, Chirana, Czech Republic) at a dose rate of 1.04 Gy/min. Non-irradiated and non-treated control groups were included. Their survival and health status were checked on a daily basis for 30 days.
Compounds 4 (50 mg/kg), 5 (100 mg/kg), 6 (50 mg/kg), 7 (100 mg/kg), 8 (1000 mg/kg), and 10 (325 mg/kg) were selected and administered i.p. 5 min before irradiation. The doses were prepared from 100 mg/mL stock before each experiment.

Solubility (in words) = type: physicochemical

SMILES | viability at 48 h, 10 µM [1] [%] | viability at 48 h, 100 µM [1] [%] | viability at 100 µM (MOLT-4 cells) [%] | viability at 48 h, 10 µM [2] [%] | viability at 48 h, 100 µM [2] [%] | viability at 48 h, 10 µM [3] [%] | viability at 48 h, 100 µM [3] [%] | viability at 48 h, 10 µM [4] [%] | viability at 48 h, 100 µM [4] [%] | day post-irradiation of onset of lethal effect / decline in survival (BALB/c mice) [days] | survival at day 30 post-irradiation (BALB/c mice) [%] | radioprotective effect in vitro (in words) (MOLT-4 cells) | solubility (in words) (Solubility (in words))
Cc1cc(OCC(O)CN2CCN(CCO)CC2)ccc1Cl.Cl.Cl (stereo not shown) [Compound 4, 1-(4-chloro-3-methylphenoxy)-3-(4-(2-hydroxyethyl)piperazin-1-yl)propan-2-ol dihydrochloride] | 100 ± 2 | 83 ± 4 | 61 | 97 ± 7 | 111 ± 24 | 105 ± 5 | 89 ± 1 | 97 ± 8 | 93 ± 5 | > 12 | 50 |  | 
Cl.Cl.Cl.OCCN1CCN(CCCNc2cccc3ccccc23)CC1 [Compound 6, 2-(4-(3-(naphthalen-1-ylamino)propyl)piperazin-1-yl)ethanol trihydrochloride] | 86 ± 4 | 97 ± 4 | 69 | 92 ± 11 | 111 ± 5 | 101 ± 1 | 93 ± 2 | 91 ± 4 | 94 ± 2 | 10 | 20 |  | 
Cl.Cl.OC(CNc1ccccc1)CNc1ccccc1 [Compound 9, 1,3-bis(phenylamino)propan-2-ol dihydrochloride] | 102 ± 5 | 148 ± 2 | 34 | 93 ± 12 | 118 ± 5 | 104 ± 5 | 79 ± 11 | 102 ± 8 | 120 ± 16 |  |  | no significant radioprotective effect | low solubility; also recorded: insufficiently soluble for necessary concentrations
Cl.Cl.Cl.OCCN1CCN(CC(O)CNc2ccccc2)CC1 (stereo not shown) [Compound 10, 1-(phenylamino]-3-[4-(2-hydroxyethyl)piperazin-1-yl)propan-2-ol trihydrochloride] | 104 ± 11 | 113 ± 2 | 51 | 95 ± 7 | 111 ± 6 | 108 ± 7 | 95 ± 4 | 102 ± 3 | 102 ± 8 | > 12 | 30 |  | 
COc1ccc(NCCCN2CCN(CCO)CC2)cc1.Cl.Cl.Cl [Compound 7, 2-(4-(3-((4-methoxyphenyl)amino)propyl)piperazin-1-yl)ethanol trihydrochloride] | 96 ± 3 | 118 ± 2 | 64 | 99 ± 10 | 116 ± 3 | 100 ± 5 | 96 | 100 ± 3 | 104 ± 3 | 9 | 0 |  | 
Cl.Cl.Cl.OCCN1CCN(CCCNc2ccccc2)CC1 [Compound 5, 2-(4-(3-(phenylamino)propyl)piperazin-1-yl)ethanol trihydrochloride] | 91 ± 2 | 109 ± 2 | 59 | 86 ± 16 | 115 ± 7 | 98 ± 4 | 98 ± 3 | 98 ± 7 | 102 ± 8 | 10 | 30 | did not show statistically significant radioprotective effect | 
OCCN1CCN(CC(O)CN2CCN(CCO)CC2)CC1 [Compound 8, 1.3-bis [4-(2-hydroxyethyl)piperazin-1-yl)propan-2-ol tetrahydrochloride] | 101 ± 1 | 154 ± 11 | 57 | 98 ± 9 | 117 ± 11 | 103 ± 5 | 96 ± 13 | 95 ± 7 | 119 ± 16 | > 12 | 70 |  | excellently soluble in media
